{"source": "patent US20240261245A1", "about": "“METHODS OF TREATING CANCERS HAVING A DEREGULATED NRF2/KEAP1 PATHWAY” (New York University, priority 2017, published 2024)", "key": {"[1]": {"system": "KP-derived tumors", "assay": "CB-839 treatment of KP-derived subcutaneous and orthotopic tumors in immunodeficient animals", "type": "in vivo, mouse", "conditions": "subcutaneous and orthotopic transplants; 200 mg/kg CB-839 twice a day", "procedure": "(§1) Animals were treated as before (Davidson et al. 2016, Cell Metab 23:517-528, doi: 10.1016/j.cmet.2016.01.007) with 200 mg/kg CB-839 or vehicle twice a day after tumor establishment phase. The vehicle contained 25% (w/v) hydroxypropyl-β-cyclodextrin in 10 mmol/L citrate (pH 2.0), and CB-839 was formulated at 20 mg/mL for a final dosing volume of 10 mL/kg.\n(§2) It was next asked if increased glutamine utilization in KPK cell lines could be a druggable metabolic liability. […] Consistently, a panel of human lung cancer cells containing KEAP1 mutations or GOF mutations in NRF2 were sensitive to glutaminase inhibition while KEAP1 WT cells were largely resistant (FIG. 9C and FIG. 10B). […] To investigate the therapeutic potential of targeting glutaminase in Keap mutant tumors in vivo, KP and KPK cells were transplanted subcutaneously and orthotopically (lung) in immunodeficient animals. Once tumors had established, treatment was initiated with either vehicle or CB-839, an orally bioavailable glutaminase inhibitor in phase I clinical trials for KRAS mutant NSCLC (FIG. 9E)."}, "[2]": {"system": "T cell", "assay": "Impact of CB839 on T cell function (data not shown)", "type": "cell-based"}, "[3]": {"system": "KPK cell lines", "assay": "Viability/growth of KPK (Keap1 loss) cell lines compared to KP (cell titer glo, trypan blue, crystal violet)", "type": "cell-based, mouse", "procedure": "(§3) Cells were maintained in DMEM or RPMI supplemented with 10% Fetal Bovine Serum and gentamicin. Cell lines expressing rtTA were kept under Neomycin selection (400 ug/mL). Cell lines expressing dox inducible Nrf2 constructs remained under Hygromycin selection (600 ug/mL). […] Viability in the presence of all compounds was assessed by cell titer glo (Promega #G7570) and trypan blue exclusion on a Countess II automated cell counter (Life Technologies). For clonogenic and low-density assays, cells were stained with Crystal Violet solution (25% Methanol 75% H20). For cell counts after DMF treatment cells were fixed with 4% paraformaldehyde for 15 minutes at 4 C. Cells were then washed in ice cold PBS and then stained with Hoechst DNA stain. Plates were quantified using a Tecan infinite M200 Pro plate reader or a SpectraMax M5 Miroplate reader (Molecular Devices)."}, "[4]": {"system": "KPK-derived subcutaneous and orthotopic tumors", "assay": "CB-839 treatment of KPK-derived subcutaneous and orthotopic tumors in immunodeficient animals", "type": "in vivo, mouse", "procedure": "as §1, §2"}, "[5]": {"system": "KP-ix cells", "assay": "Viability counts of KP-ix cells (doxycycline inducible GOF-Nrf2) with CB-839", "type": "cell-based, mouse", "conditions": "CB-839 250 nM, 72 hours", "procedure": "as §3"}, "[6]": {"system": "KPN cells", "assay": "Viability of KPN (Nrf2 loss) cells under oxidative stress agents", "type": "cell-based, mouse", "conditions": "KPN cells treated with oxidative stress agents (BSO, AUR, ERA)", "procedure": "as §3"}, "[7]": {"system": "KP, KPN and KPK cell lines", "assay": "Viability of isogenic cell line panel treated with oxidative stress inducers (cell-titer glo)", "type": "cell-based, mouse", "conditions": "72 hours of drug treatment", "procedure": "as §3"}, "[8]": {"system": "KPN-ix cell lines", "assay": "BSO dose response in KPN-ix cells with doxycycline inducible GOF-Nrf2", "type": "cell-based, mouse", "procedure": "as §3"}, "[9]": {"system": "glutathione (GSH)", "assay": "Glutathione measurement (GSH/GSSG-Glo) after BSO", "type": "cell-based, mouse", "procedure": "ROS in cultured cells were measured by incubating […] with 5 μM CM-H2DCFDA (C6827, Life Technologies) for 30 min at 37° C. DCF fluorescence was acquired on the Attune NxT (ThermoFisher) flow cytometer and analyzed using FlowJo software (Tree Star). Reduced (GSH) and oxidized glutathione (GSSG) was measured with a GSH/GSSG-Glo Assay kit (V6611, Promega) for the indicated amount of time."}, "[10]": {"system": "Nrf2", "conditions": "SFN 10 μM for 6 hr", "procedure": "as §3\nCells were lysed in 250 μL ice-cold RIPA buffer (Pierce, #89900) supplemented with 1 × Complete Mini inhibitor mixture (Roche, #11 836 153 001) and mixed on a rotator at 4° C. for 30 minutes. The protein concentration of the cell lysates was quantified using the Bio-Rad DC Protein Assay (Catalog #500-0114). 50-80 μg of total protein was separated on 4-12% Bis-Tris gradient gels (Bio-Rad) by SDS-PAGE and then transferred to nitrocellulose membranes. […]\nRNA was collected from cells as before (Papagiannakopoulos et al. (2016, Cell Metab 24, 324-331, doi:10.1016/j.cmet.2016.07.001) with RNeasy plus mini kit (Qiagen), sequenced with X analyzed with YZ. For Real Time qPCR analysis, complementary DNA (cDNA) was synthesized from RNA with the High Capacity cDNA Reverse Transcription Kit (Applied Biosystems #4368814). Genes Slc7a11, Gclc, Hmox1, and Nqo1 were analyzed by quantitative reverse transcription polymerase chain reaction on LightCycler 480 II (Roche). RT qPCR primers (Supplementary Sequences)."}, "[11]": {"system": "Nrf2", "assay": "Western blot for Nrf2 after oxidative stress inducer DMF in isogenic KP/KPK cells", "type": "cell-based, mouse", "conditions": "control (KP) cells; 6 hour DMF treatment", "excerpt": "To perform in vitro functional characterization of and Keap1, isogenic cell lines were generated from a Kras^LSL-G12D/+; p53^−/− C57B6 GEMM-derived cell line using the CRISPR/Cas9 and sgRNAs against Keap1. LOF of the gene was validated by western blot analysis in basal conditions and in the presence of an oxidative stress inducer, dimethyl fumarate (DMF), which is known to deplete the cellular glutathione pool and induce Nrf2 activation (Sullivan et al., “The Proto-oncometabolite Fumarate Binds Glutathione to Amplify ROS-Dependent Signaling,” Molecular Cell 51:236-248 (2013), which is hereby incorporated by reference in its entirety). It was observed that Nrf2 is induced in control cells in response to 6 hour DMF treatment. Keap1 LOF leads to a robust increase of Nrf2 even in the absence of DMF (FIG. 13)."}, "[12]": {"system": "GPD2", "conditions": "in vivo; cited from earlier work"}, "[13]": {"conditions": "intraperitoneal, 50 mg/kg daily over 30 days; cited from earlier work"}}, "note": "Where a name gives a salt, the structure may show the parent alone. Read-outs that look alike come from different tables or passages of the source."}
{"smiles": "O=C(Cc1cccc(OC(F)(F)F)c1)Nc1ccc(CCCCc2nnc(NC(=O)Cc3ccccn3)s2)nn1", "note": "[CB-839]", "values": [{"measurement": "tumor response to treatment", "setting": "[1]", "result": "no response"}, {"measurement": "impact on T cell function", "setting": "[2]", "result": "does not negatively impact T cell function"}, {"measurement": "sensitivity to glutaminase inhibitors", "setting": "[3]; KPK compared to KP cell lines, 72 hours", "result": "far more sensitive"}, {"measurement": "final tumor weights", "setting": "[4]; 200 mg/kg CB-839 twice a day versus vehicle", "result": "smaller final tumor weights"}, {"measurement": "tumor growth over the course of the experiment", "setting": "[4]; subcutaneous and orthotopic transplants, 200 mg/kg CB-839 twice a day", "result": "dramatic stunted growth"}, {"measurement": "sensitivity to CB-839 upon induction of GOF-Nrf2", "setting": "[5]", "result": "robust sensitivity"}]}
{"smiles": "CC(=O)N[C@@H](CS)C(=O)O", "note": "[N-acetyl cysteine, N-acetyl-L-cysteine]", "values": [{"measurement": "rescue of loss of viability by antioxidants", "setting": "[6]", "result": "rescued"}]}
{"smiles": "CCCCS(=N)(=O)CCC(N)C(=O)O", "note": "[BSO, L-Buthionine-sulfoximine]", "values": [{"measurement": "genotype-specific sensitivity (cell viability)", "setting": "[7]", "result": "distinct genotype-specific sensitivities"}, {"measurement": "BSO-mediated loss of viability upon induction of GOF-Nrf2", "setting": "[8]; 72 hours of dox induction", "result": "rescued"}, {"measurement": "IC50 of BSO", "setting": "[8]; KPN-ix +dox versus -dox, 72 hours", "result": "increase"}, {"measurement": "levels of GSH and viability", "setting": "[9]; KPK compared to KP clones, 100 μM BSO", "result": "maintain measurable levels of GSH and viability"}, {"measurement": "GSH pools", "setting": "[9]; KPN clones, after 12 hours of BSO treatment (100 μM)", "result": "rapid exhaustion of GSH pools"}, {"measurement": "reduced glutathione (GSH): oxidized glutathione (GSSG) ratio", "setting": "[9]; panel of isogenic cell lines (KP, KPN, KPK)", "result": "stark contrast"}]}
{"smiles": "C[S+]([O-])CCCCN=C=S", "note": "(racemic) [Sulforaphane, D,L-Sulforaphane]", "values": [{"measurement": "Nrf2 protein levels and expression of target genes", "setting": "[10]; KP cells", "result": "stabilized Nrf2 protein levels and expression of target genes"}, {"measurement": "Nrf2 protein levels and expression of target genes", "setting": "[10]; KP cells, listed as SFN", "result": "accumulation of Nrf2 occurs only in the KP samples"}, {"measurement": "Nrf2 protein levels and expression of target genes", "setting": "[10]; KPK or KPN cells, listed as SFN", "result": "not further stabilized"}]}
{"smiles": "CC(=O)OC[C@H]1O[C@@H]([S-])[C@H](OC(C)=O)[C@@H](OC(C)=O)[C@@H]1OC(C)=O.CCP(CC)CC.[Au+]", "note": "[auranofin, Auranofin]", "values": [{"measurement": "genotype-specific sensitivity (cell viability)", "setting": "[7]", "result": "distinct genotype-specific sensitivities"}]}
{"smiles": "COC(=O)/C=C/C(=O)OC", "note": "[DMF, Dimethyl fumarate]", "values": [{"measurement": "Nrf2 induction (western blot)", "setting": "[11]", "result": "induced"}]}
{"smiles": "Cc1c(C)c2c(c(C)c1O)CCC(C)(C(=O)O)O2", "note": "(stereo not shown) [Trolox]", "values": [{"measurement": "rescue of loss of viability by antioxidants", "setting": "[6]", "result": "rescued"}]}
{"smiles": "CN(C)C(=N)N=C(N)N", "note": "[metformin]", "values": [{"measurement": "GPD2 enzymatic activity", "setting": "[12]", "result": "inhibits"}, {"measurement": "toxicity", "setting": "[13]", "result": "no toxicity"}]}
{"smiles": "O=CC[C@@H](O)[C@H](O)[C@H](O)CO", "note": "[2-deoxy-D-glucose]", "values": [{"measurement": "sensitivity to glycolytic inhibitor", "setting": "[3]; KPK compared to KP cells, 5 mM 2DG for 72 h", "result": "increased sensitivity"}]}
